Laboratory results: ChEMBL document CHEMBL5465560, “Selectivity Literature for EUbOPEN Chemogenomic Library” (2024)
One block for each compound: values may come before it.

What was measured:
[1] = molecular target: SRSF protein kinase 3 (Homo sapiens) (UniProt Q9UPE1); experiment: Selectivity interaction (Kinase panel (Z-LYTE Assay)) EUB0001632a SRPK3; conditions: at 10 µM
[2] = molecular target: MAP kinase-interacting serine/threonine-protein kinase 2 (Homo sapiens, UniProt Q9HBH9); experiment: Selectivity interaction (Kinase panel (literature)) EUB0001199aCl MKNK2; conditions: at 1 µM
[3] = molecular target: Vascular endothelial growth factor receptor 1 (Homo sapiens) (UniProt P17948); experiment: Selectivity interaction (SelectScreen profiling (Invitrogen)) EUB0000607a FLT1; conditions: at 2 µM
[4] = molecular target: Mitogen-activated protein kinase kinase kinase 20 (Homo sapiens) (UniProt Q9NYL2); experiment: Selectivity interaction (KinomeScan (DiscoverX)) EUB0000595a MAP3K20; conditions: at 10 µM
[5] = molecular target: Serine/threonine-protein kinase 38 (Homo sapiens) (UniProt Q15208); experiment: Selectivity interaction (Ambit KINOMEscan and KiNATiv profiling in Jurkat cells) EUB0000090b STK38; assay type: cell-based; conditions: at 1 µM
[6] = molecular target: Serine/threonine-protein kinase SIK3 (Homo sapiens) (UniProt Q9Y2K2); experiment: Selectivity interaction (Ambit KINOMEscan and KiNATiv profiling in Jurkat cells) EUB0000090b SIK3; assay type: cell-based; conditions: at 1 µM
[7] = molecular target: Mitogen-activated protein kinase 10 (Homo sapiens, UniProt P53779); experiment: Selectivity interaction (Kinase panel (DSF assay)) EUB0001558a MAPK10
[8] = molecular target: Tyrosine-protein kinase Fyn (Homo sapiens) (UniProt P06241); experiment: Selectivity interaction (KinomeScan (DiscoverX)) EUB0000045b FYN
[9] = molecular target: Myosin light chain kinase, smooth muscle (Homo sapiens, UniProt Q15746); experiment: Selectivity interaction (KinomeScan (DiscoverX)) EUB0001079a MYLK; conditions: at 1 µM
[10] = molecular target: Protein polybromo-1 (Homo sapiens) (UniProt Q86U86); experiment: Selectivity interaction (Bromodomain panel (DSF asssay)) EUB0000270b PBRM1
[11] = molecular target: Histone-lysine N-methyltransferase EZH2 (Homo sapiens) (UniProt Q15910); experiment: Selectivity interaction (Transferase panel (protein, RNA, and DNA methyltransferases. and EP300 (acetyltransferase))) EUB0000270b EZH2
[12] = molecular target: T1, Cyclin-dependent kinase 5 (Homo sapiens, UniProt Q00535); experiment: Selectivity interaction (KinomeScan (DiscoverX)) EUB0000229b CDK5; conditions: at 10 µM
[13] = molecular target: T2, Serine/threonine-protein kinase STK11 (Homo sapiens) (UniProt Q15831); experiment: Selectivity interaction (KinomeScan (DiscoverX)) EUB0000229b STK11; conditions: at 10 µM
T2 sequence (whole entry): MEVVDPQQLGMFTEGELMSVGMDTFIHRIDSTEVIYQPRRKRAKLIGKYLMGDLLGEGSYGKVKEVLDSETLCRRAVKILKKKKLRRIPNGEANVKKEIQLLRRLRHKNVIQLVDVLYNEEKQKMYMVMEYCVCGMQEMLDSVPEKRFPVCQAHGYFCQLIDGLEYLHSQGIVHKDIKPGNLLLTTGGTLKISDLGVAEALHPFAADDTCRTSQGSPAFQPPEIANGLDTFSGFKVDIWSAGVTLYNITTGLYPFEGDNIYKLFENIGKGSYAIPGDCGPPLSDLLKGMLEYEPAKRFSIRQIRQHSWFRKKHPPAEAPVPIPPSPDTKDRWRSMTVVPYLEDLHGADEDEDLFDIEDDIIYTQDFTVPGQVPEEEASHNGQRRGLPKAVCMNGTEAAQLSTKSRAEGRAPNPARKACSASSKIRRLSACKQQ

[14] = molecular target: T3, Mitogen-activated protein kinase kinase kinase 12 (Homo sapiens) (UniProt Q12852); experiment: Selectivity interaction (KinomeScan (DiscoverX)) EUB0000229b MAP3K12; conditions: at 10 µM
T3 sequence (whole entry): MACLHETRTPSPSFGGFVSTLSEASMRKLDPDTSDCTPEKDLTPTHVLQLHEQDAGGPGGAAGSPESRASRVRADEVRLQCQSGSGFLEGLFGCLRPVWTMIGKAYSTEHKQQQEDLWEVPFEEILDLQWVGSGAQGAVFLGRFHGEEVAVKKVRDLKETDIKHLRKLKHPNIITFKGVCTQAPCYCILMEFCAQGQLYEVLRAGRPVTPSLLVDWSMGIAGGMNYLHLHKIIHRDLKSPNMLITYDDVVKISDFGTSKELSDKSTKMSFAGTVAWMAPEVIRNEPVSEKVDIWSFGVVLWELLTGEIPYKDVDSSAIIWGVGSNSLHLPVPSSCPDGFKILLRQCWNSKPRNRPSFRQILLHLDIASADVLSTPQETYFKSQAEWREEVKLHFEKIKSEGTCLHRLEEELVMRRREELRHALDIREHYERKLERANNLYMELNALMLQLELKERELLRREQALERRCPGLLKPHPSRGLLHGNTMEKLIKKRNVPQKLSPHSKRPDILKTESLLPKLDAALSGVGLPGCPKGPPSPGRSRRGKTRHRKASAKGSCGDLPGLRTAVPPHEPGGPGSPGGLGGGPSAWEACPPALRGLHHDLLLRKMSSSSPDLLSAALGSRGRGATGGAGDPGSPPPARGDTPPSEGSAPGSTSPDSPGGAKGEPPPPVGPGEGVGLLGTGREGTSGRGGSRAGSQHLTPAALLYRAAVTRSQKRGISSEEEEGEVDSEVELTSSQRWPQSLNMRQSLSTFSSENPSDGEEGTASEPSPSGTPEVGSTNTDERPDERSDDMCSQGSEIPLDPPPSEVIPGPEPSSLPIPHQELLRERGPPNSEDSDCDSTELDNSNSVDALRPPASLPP

[15] = molecular target: T1, Cyclin-dependent kinase 5; experiment: Selectivity interaction (KinomeScan (DiscoverX)) EUB0000618a CDK5; conditions: at 10 µM

T1 sequence (Q00535 whole entry, looked up): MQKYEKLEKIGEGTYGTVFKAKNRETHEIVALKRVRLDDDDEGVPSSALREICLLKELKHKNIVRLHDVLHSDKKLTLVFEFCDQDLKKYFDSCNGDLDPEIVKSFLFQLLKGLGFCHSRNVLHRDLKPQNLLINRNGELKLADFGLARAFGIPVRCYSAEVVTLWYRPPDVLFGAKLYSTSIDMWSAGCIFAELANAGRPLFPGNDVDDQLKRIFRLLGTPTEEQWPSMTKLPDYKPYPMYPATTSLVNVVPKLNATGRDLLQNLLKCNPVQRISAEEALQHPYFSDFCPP
Tyrosine-protein kinase Fyn (Homo sapiens), sequence (P06241 2-537 limits assumed): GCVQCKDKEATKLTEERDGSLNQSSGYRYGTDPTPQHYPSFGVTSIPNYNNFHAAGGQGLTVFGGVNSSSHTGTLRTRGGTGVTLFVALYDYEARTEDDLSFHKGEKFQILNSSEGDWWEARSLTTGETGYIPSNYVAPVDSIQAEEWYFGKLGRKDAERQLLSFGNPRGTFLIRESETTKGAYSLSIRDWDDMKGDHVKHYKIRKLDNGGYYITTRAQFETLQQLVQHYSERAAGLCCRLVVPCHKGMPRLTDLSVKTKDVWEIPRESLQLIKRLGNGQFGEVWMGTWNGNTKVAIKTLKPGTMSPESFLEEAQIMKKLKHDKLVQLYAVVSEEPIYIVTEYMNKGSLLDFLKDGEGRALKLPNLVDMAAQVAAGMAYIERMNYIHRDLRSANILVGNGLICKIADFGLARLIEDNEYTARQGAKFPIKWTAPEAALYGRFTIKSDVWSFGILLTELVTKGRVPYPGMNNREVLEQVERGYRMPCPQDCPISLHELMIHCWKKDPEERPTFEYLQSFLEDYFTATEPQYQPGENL
Histone-lysine N-methyltransferase EZH2 (Homo sapiens), sequence (Q15910 whole entry, looked up): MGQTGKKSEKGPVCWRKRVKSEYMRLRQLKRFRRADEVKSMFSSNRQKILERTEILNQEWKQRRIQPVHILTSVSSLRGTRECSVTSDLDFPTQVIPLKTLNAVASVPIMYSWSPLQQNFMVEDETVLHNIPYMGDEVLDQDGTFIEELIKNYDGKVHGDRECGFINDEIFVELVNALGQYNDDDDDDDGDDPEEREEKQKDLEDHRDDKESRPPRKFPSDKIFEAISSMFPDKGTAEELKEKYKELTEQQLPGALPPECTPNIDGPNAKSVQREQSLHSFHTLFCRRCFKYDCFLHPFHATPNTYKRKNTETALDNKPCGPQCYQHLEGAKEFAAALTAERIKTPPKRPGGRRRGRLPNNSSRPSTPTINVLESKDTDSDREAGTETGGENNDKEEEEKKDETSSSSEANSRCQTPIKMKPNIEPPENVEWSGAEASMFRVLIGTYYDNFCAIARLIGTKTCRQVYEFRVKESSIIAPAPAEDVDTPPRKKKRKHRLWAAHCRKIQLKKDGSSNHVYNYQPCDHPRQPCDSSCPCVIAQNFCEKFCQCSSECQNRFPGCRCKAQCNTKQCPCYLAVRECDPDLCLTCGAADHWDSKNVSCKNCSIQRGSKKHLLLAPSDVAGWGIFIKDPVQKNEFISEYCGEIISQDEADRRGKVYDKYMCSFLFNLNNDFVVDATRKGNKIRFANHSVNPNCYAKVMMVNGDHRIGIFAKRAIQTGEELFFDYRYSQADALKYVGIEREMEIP
Serine/threonine-protein kinase SIK3 (Homo sapiens), sequence (Q9Y2K2 whole entry, looked up): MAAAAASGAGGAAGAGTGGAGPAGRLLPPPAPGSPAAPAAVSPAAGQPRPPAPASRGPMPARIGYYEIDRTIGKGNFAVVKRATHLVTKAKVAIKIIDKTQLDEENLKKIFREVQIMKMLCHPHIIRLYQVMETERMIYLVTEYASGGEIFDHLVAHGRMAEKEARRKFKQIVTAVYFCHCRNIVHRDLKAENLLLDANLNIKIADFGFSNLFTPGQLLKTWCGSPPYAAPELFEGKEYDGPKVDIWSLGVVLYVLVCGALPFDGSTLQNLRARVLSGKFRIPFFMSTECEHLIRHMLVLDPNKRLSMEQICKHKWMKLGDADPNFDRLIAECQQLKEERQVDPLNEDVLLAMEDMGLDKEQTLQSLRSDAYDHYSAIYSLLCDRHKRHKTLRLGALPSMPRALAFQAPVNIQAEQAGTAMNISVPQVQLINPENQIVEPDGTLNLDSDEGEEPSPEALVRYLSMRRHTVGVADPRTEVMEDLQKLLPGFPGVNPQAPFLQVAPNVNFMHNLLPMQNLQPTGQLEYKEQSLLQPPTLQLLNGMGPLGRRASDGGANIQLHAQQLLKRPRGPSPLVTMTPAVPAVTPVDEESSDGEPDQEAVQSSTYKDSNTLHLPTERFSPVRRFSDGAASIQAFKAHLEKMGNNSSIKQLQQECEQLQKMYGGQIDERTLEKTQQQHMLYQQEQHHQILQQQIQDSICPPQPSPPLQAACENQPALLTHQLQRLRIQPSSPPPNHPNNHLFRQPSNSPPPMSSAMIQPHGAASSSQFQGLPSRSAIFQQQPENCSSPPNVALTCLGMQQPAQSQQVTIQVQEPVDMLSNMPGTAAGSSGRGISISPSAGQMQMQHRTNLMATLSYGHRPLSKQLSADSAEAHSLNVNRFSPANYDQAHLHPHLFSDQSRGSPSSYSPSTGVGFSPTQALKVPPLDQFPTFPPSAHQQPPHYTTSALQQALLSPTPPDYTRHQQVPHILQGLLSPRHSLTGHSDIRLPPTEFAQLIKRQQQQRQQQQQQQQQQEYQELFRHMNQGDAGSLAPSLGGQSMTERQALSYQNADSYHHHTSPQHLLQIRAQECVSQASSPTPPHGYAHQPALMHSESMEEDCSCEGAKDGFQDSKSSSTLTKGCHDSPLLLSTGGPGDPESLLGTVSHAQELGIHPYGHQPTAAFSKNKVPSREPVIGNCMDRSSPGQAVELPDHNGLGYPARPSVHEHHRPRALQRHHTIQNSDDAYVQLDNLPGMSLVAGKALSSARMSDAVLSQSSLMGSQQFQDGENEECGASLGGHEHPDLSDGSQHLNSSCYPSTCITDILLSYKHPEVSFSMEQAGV
Serine/threonine-protein kinase 38 (Homo sapiens), sequence (Q15208 2-465 limits assumed): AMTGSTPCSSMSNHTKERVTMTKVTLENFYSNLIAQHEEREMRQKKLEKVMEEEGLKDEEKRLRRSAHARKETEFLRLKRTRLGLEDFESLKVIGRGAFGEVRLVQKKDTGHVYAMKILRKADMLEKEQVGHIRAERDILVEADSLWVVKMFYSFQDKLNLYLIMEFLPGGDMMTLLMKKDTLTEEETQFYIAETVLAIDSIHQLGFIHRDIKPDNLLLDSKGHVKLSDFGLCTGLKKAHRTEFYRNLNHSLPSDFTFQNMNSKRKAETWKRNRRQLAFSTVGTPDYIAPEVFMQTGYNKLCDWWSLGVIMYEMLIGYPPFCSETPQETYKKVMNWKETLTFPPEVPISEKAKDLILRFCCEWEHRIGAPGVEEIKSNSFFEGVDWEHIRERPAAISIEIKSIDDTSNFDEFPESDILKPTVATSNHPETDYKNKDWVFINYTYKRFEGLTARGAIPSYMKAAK
Mitogen-activated protein kinase kinase kinase 20 (Homo sapiens), sequence (Q9NYL2 2-800 limits assumed): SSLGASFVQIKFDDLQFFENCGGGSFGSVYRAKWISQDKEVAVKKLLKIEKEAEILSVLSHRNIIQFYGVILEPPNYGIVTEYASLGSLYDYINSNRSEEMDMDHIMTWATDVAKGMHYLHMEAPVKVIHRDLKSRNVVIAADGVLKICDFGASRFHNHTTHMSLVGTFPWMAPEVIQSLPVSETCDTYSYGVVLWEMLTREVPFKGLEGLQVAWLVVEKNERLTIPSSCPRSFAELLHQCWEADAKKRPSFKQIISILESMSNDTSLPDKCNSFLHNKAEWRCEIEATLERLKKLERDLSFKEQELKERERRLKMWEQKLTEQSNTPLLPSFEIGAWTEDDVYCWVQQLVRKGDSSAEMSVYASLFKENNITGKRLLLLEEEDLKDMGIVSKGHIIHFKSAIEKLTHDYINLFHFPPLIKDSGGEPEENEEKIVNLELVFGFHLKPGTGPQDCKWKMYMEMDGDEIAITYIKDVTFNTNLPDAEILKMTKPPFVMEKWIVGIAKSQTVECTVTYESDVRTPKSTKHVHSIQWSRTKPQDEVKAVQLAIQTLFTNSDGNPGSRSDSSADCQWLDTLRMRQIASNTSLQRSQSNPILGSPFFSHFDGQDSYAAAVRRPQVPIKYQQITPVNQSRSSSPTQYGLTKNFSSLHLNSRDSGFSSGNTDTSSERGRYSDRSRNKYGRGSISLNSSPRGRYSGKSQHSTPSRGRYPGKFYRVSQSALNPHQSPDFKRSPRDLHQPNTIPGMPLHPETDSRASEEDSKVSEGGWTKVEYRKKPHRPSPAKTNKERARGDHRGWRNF
MAP kinase-interacting serine/threonine-protein kinase 2, sequence (Q9HBH9 whole entry, looked up): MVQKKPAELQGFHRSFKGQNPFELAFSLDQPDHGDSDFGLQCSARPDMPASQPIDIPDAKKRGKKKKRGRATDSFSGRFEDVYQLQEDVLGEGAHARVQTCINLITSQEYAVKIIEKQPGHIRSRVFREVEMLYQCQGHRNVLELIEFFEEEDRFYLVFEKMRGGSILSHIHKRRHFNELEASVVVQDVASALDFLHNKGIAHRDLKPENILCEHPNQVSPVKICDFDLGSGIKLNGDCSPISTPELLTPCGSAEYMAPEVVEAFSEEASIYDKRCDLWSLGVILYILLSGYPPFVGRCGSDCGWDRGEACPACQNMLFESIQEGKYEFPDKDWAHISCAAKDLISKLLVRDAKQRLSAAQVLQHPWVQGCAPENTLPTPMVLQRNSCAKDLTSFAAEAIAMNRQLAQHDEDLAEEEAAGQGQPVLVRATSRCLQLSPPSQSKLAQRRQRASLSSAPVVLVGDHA

% of control [1]: -1.05%
Compound: Cn1cc(-n2cnc3c(NCc4nc5cc(Cl)c(Cl)cc5[nH]4)nc(N4CCOCC4)nc32)cn1

% of inhibition [2]: 9%
Compound: CN1Cc2nccc(-c3cn(C)nc3-c3ccc(F)cc3)c2C1=O

Compound: CNC(=O)Nc1ccc(-c2nc(N3CC4CCC(C3)O4)c3cnn(C4CCC5(CC4)OCCO5)c3n2)cc1
% of inhibition [3]: 8%

Compound: COCC(=O)NC/C=C/c1ccc2ncnc(Nc3ccc(Oc4ccc(C)nc4)c(C)c3)c2c1 [CP-724714]
% of control [4]: 76%

Compound: CN(C)C/C=C/C(=O)Nc1ccc(C(=O)N2CCCC(Nc3ncc(Cl)c(-c4c[nH]c5ccccc45)n3)C2)cc1 (configuration not stated)
% of control [5]: 100% | % of control [6]: 99%

Compound: CC(C)(O)[C@H](F)CN1Cc2cc(NC(=O)c3cnn4cccnc34)c(N3CCOCC3)cc2C1=O
dTM [7]: 1.5 K

Compound: C=CC(=O)Nc1cc(-n2c(=O)ccc3cnc4ccc(-c5ccc(NS(C)(=O)=O)cc5)cc4c32)ccc1C
% of control ([8]; at 1 µM): 100% | % of control ([8]; at 10 µM): 98%

Compound: Nc1cnc(N2CCc3cc(S(=O)(=O)Nc4c(F)cc(Cl)cc4F)cc(N4CCCC4=O)c32)nc1 [TP-020n]
% of control [9]: 91%

dTM [10]: -2.3 K | % activity ([11]; at 1 µM): > 90% | % activity ([11]; at 10 µM): > 80%
Compound: Cc1cc(CN)cc(C)c1-c1ncn(C)c1-c1cncn1C

Compound: COc1cc(N(C)c2ccnc3ccc(C(F)(F)F)cc23)cc(OC)c1OC
% binding [12]: 97% | % binding [13]: 77% | % binding [14]: 78%

Compound: O[C@H]1CC[C@H](Nc2ncc3nc(Nc4c(F)cc(F)cc4F)n([C@H]4CCOC4)c3n2)CC1
% of control [15]: 100%
